Experimental data: ChEMBL document CHEMBL1125472, “5-lipoxygenase: properties, pharmacology, and the quinolinyl(bridged)aryl class of inhibitors” (J Med Chem, 1992)

Biological target: T1, Prostaglandin G/H synthase (cyclooxygenase) (Mus musculus, UniProt P22437+Q05769)
T1 sequence (P22437 whole entry): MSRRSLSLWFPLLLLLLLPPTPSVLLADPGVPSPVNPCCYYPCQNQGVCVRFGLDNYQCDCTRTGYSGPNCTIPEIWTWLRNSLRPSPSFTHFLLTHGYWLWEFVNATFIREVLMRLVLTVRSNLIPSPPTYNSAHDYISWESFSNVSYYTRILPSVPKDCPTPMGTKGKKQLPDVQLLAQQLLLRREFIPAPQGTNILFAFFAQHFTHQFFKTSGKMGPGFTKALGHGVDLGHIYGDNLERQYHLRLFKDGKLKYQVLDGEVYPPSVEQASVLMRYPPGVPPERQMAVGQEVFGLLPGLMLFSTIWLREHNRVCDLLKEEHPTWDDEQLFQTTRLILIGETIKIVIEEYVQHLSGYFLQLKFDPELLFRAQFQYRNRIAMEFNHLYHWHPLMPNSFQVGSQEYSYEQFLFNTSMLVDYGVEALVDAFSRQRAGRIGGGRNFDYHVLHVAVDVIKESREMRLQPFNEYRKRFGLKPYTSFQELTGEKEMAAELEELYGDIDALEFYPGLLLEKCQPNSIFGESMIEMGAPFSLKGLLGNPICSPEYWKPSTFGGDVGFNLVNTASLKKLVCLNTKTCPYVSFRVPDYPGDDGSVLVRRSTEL
T1 sequence (Q05769 whole entry): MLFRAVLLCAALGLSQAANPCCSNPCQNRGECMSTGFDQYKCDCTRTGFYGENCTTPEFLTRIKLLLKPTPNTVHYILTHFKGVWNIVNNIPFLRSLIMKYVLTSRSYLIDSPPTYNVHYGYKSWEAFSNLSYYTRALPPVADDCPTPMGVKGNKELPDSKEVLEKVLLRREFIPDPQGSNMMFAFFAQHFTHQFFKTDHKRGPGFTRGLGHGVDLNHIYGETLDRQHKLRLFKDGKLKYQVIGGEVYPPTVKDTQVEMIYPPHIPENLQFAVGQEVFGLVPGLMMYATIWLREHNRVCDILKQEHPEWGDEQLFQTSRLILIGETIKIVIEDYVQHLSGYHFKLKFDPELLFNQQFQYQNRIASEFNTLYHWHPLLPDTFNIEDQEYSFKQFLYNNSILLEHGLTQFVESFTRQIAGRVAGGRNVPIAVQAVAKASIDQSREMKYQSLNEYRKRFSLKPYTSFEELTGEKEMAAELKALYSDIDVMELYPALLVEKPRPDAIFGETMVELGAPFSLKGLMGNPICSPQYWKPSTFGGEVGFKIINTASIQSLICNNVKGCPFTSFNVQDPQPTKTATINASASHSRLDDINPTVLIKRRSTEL
Experiment: The compound was tested for inhibitory activity against cyclooxygenase in mouse macrophages
Type: protein assay

With c1ccc2nc(COc3cccc4ccccc34)ccc2c1 the IC50 was 44 µM.
